Data taken from the supplement of paper PMC10883282.

Key:
[1] = test system: A204; test: relative viability vs DMSO control (72 h) (fraction); higher = more viable cells
Procedure, shortened: (§1)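 Serially diluted compound, 2.5 µl from source plates spanning 10 mM to 0.0002 mM, was added 24 h after sarcoma cell lines were seeded in 384-well plates at densities targeting 80–90% confluence. Plates then sat 72 h at 37 °C, 5% CO2, with 0.1% DMSO vehicle and a 5 µM positive control. Relative viability came from ATPLite as percent growth, averaged over up to triplicate wells, and was rescaled with 1 as full and 0 as none.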

[2] = test system: HS729; test: as above
Procedure, shortened: as §1

[3] = test system: KHOS-240S; test: as above
Procedure, shortened: as §1

[4] = test system: SW982; test: as above
Procedure, shortened: as §1

[5] = test system: SYO-1; test: as above
Procedure, shortened: as §1

[6] = test system: A204; test: standardised AUC of viability dose-response curve (72 h) (fraction (0-1)); higher = less growth inhibition (more resistant)
Procedure, shortened: (§2)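 Viability of sarcoma cell lines was read with ATPLite after 72 h of triplicate treatment in 384-well plates with 2.5 µl of compound from a compound-plate series of 10 mM to 0.0002 mM. Viability was scaled 1 (full) to 0 (none) and fitted with a four-parameter log-logistic model for each drug and cell line. The reported standardised area under the dose-response curve in log-dose space comes from a modified drexplorer computeAUC, where 1 is no response and 0 is full response.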

[7] = test system: G401; test: as above
Procedure, shortened: as §2

[8] = test system: HS729; test: as above
Procedure, shortened: as §2

[9] = test system: HT1080; test: as above
Procedure, shortened: as §2

[10] = test system: KHOS-240S; test: as above
Procedure, shortened: as §2

[11] = test system: KHOS-NP; test: as above
Procedure, shortened: as §2

[12] = test system: MES-SA; test: as above
Procedure, shortened: as §2

[13] = test system: RD-ES; test: as above
Procedure, shortened: as §2

[14] = test system: RD; test: as above
Procedure, shortened: as §2

[15] = test system: SK-ES-1; test: as above
Procedure, shortened: as §2

[16] = test system: SK-LMS-1; test: as above
Procedure, shortened: as §2

[17] = test system: SW1353; test: as above
Procedure, shortened: as §2

[18] = test system: SW684; test: as above
Procedure, shortened: as §2

[19] = test system: SW872; test: as above
Procedure, shortened: as §2

[20] = test system: SW982; test: as above
Procedure, shortened: as §2

[21] = test system: SYO-1; test: as above
Procedure, shortened: as §2

[22] = test system: VA-ES-BJ; test: as above
Procedure, shortened: as §2

CNC(=O)c1nnc(NC(=O)C2CC2)cc1Nc1cccc(-c2ncn(C)n2)c1OC
relative viability
Settings | [1] | [2] | [3] | [4] | [5]
0.00017 µM | 1.1 | 0.934 | 1.08 | 1.05 | 0.958
0.00051 µM | 1.09 | 0.925 | 1.07 | 1.06 | 0.969
0.00152 µM | 1.08 | 0.869 | 1.059 | 1.05 | 0.924
0.00457 µM | 1.06 | 0.885 | 1.05 | 1.04 | 0.937
0.01372 µM | 1.06 | 0.9 | 1.07 | 1.05 | 0.952
0.04115 µM | 1.06 | 0.931 | 1.04 | 1.06 | 0.935
0.1235 µM | 1.07 | 0.906 | 1.06 | 1.06 | 0.924
0.3704 µM | 1.09 | 0.8552 | 1.07 | 1.07 | 0.888
1.111 µM | 1.11 | 0.86 | 1.08 | 1.06 | 0.928
3.333 µM | 1.01 | 0.84 | 1.06 | 1.02 | 0.983
10 µM | 0.714 | 0.761 | 1.03 | 0.722 | 0.918

Settings | standardised AUC
[6] | 0.978
[7] | 0.99
[8] | 0.956
[9] | 0.992
[10] | 0.976
[11] | 0.993
[12] | 0.984
[13] | 0.99
[14] | 0.983
[15] | 0.958
[16] | 0.988
[17] | 0.986
[18] | 0.991
[19] | 0.983
[20] | 0.983
[21] | 0.989
[22] | 0.986

COc1cc(CCc2cc(NC(=O)c3ccc(N4CC(C)NC(C)C4)cc3)n[nH]2)cc(OC)c1 (centres undefined) [AZD-4547]
relative viability
Settings | [1] | [2] | [3] | [4] | [5]
0.00017 µM | 1.04 | 1.02 | 1.04 | 1 | 0.945
0.00051 µM | 1.06 | 0.918 | 1.07 | 1 | 0.864
0.00152 µM | 1.04 | 0.914 | 1.036 | 1.02 | 0.836
0.00457 µM | 1.02 | 0.901 | 1.02 | 1.018 | 0.763
0.01372 µM | 1.02 | 0.827 | 1.02 | 0.982 | 0.672
0.04115 µM | 0.841 | 0.83 | 0.9306 | 1 | 0.637
0.1235 µM | 0.714 | 0.65 | 0.841 | 1 | 0.588
0.3704 µM | 0.625 | 0.627 | 0.784 | 0.995 | 0.559
1.111 µM | 0.556 | 0.57 | 0.72 | 0.922 | 0.519
3.333 µM | 0.463 | 0.473 | 0.619 | 0.591 | 0.408
10 µM | 0.274 | 0.265 | 0.288 | 0.206 | 0.224

Settings | standardised AUC
[6] | 0.742
[7] | 0.729
[8] | 0.752
[9] | 0.965
[10] | 0.831
[11] | 0.947
[12] | 0.857
[13] | 0.903
[14] | 0.948
[15] | 0.869
[16] | 0.988
[17] | 0.873
[18] | 0.965
[19] | 0.934
[20] | 0.91
[21] | 0.698
[22] | 0.987

Cc1[nH]c(/C=C2\C(=O)Nc3ccc(F)cc32)c(C)c1C(=O)NCCN1CCCC1 [Toceranib]
relative viability
Settings | [1] | [2] | [3] | [4] | [5]
68 pM | 1.05 | 0.982 | 1.08 | 0.951 | 0.931
0.000203 µM | 1.01 | 0.926 | 1.105 | 0.984 | 0.887
0.0006 µM | 1.06 | 0.901 | 1.08 | 0.962 | 0.835
0.0018 µM | 1.08 | 0.859 | 1.11 | 1.01 | 0.806
0.0055 µM | 1.03 | 0.84 | 1.03 | 0.985 | 0.721
0.0165 µM | 0.938 | 0.778 | 0.989 | 1 | 0.64
0.0494 µM | 0.633 | 0.765 | 0.974 | 0.929 | 0.587
0.1481 µM | 0.442 | 0.729 | 0.941 | 0.993 | 0.603
0.444 µM | 0.394 | 0.715 | 0.865 | 0.948 | 0.576
1.333 µM | 0.355 | 0.59 | 0.705 | 0.571 | 0.482
4 µM | 0.327 | 0.414 | 0.491 | 0.31 | 0.357

CC(C)Oc1ccc(-c2nn([C@@H](C)c3oc4ccc(F)cc4c(=O)c3-c3cccc(F)c3)c3ncnc(N)c23)cc1F [Umbralisib]
relative viability
Settings | [1] | [2] | [3] | [4] | [5]
0.00017 µM | 1.08 | 1.09 | 1.05 | 1.03 | 1.04
0.00051 µM | 1.11 | 1.09 | 1.08 | 1.078 | 1.02
0.00152 µM | 1.12 | 1.05 | 1.09 | 1.07 | 1.03
0.00457 µM | 1.12 | 1.04 | 1.08 | 1.06 | 1.03
0.01372 µM | 1.08 | 1.05 | 1.07 | 1.05 | 1.03
0.04115 µM | 1.09 | 0.991 | 1.06 | 1.067 | 0.995
0.1235 µM | 1.08 | 1.04 | 1.07 | 1.07 | 1.01
0.3704 µM | 1.07 | 1.01 | 1.06 | 1.079 | 1.02
1.111 µM | 0.986 | 0.942 | 1.03 | 1.063 | 0.975
3.333 µM | 1.02 | 0.936 | 1 | 1.08 | 0.968
10 µM | 0.9 | 0.895 | 0.909 | 1.12 | 0.897

CC[C@@H]1CN(C(=O)NCC(F)(F)F)C[C@@H]1c1cnc2cnc3[nH]ccc3n12 [Upadacitinib]
relative viability
Settings | [1] | [2] | [3] | [4] | [5]
0.00017 µM | 1.05 | 1.02 | 1.09 | 1.01 | 1.04
0.00051 µM | 1.1 | 0.954 | 1.06 | 1.022 | 1
0.00152 µM | 1.1 | 0.973 | 1.09 | 1.05 | 0.988
0.00457 µM | 1.07 | 0.97 | 1.1 | 1.05 | 0.978
0.01372 µM | 1.05 | 0.931 | 1.08 | 1.052 | 0.958
0.04115 µM | 1.05 | 0.946 | 1.09 | 1.04 | 0.934
0.1235 µM | 1.07 | 0.895 | 1.06 | 1.06 | 0.927
0.3704 µM | 1.03 | 0.837 | 1.04 | 1.043 | 0.894
1.111 µM | 1.03 | 0.834 | 0.982 | 1 | 0.826
3.333 µM | 0.945 | 0.805 | 0.919 | 0.969 | 0.764
10 µM | 0.832 | 0.761 | 0.708 | 0.779 | 0.592

Clc1ccc(Nc2nnc(Cc3ccncc3)c3ccccc23)cc1 [Vatalanib]
relative viability
Settings | [1] | [2] | [3] | [4] | [5]
0.00017 µM | 1.05 | 0.874 | 1.03 | 1.03 | 0.921
0.00051 µM | 1.09 | 0.906 | 1.06 | 1.02 | 0.915
0.00152 µM | 1.04 | 0.915 | 1.05 | 1.04 | 0.937
0.00457 µM | 1.03 | 0.88 | 1.04 | 1.05 | 0.926
0.01372 µM | 1.04 | 0.916 | 1.04 | 1.06 | 0.929
0.04115 µM | 1.02 | 0.896 | 1.01 | 1.0899 | 0.929
0.1235 µM | 0.972 | 0.864 | 1.04 | 1.065 | 0.906
0.3704 µM | 0.904 | 0.871 | 1.03 | 1.04 | 0.882
1.111 µM | 0.7796 | 0.832 | 0.986 | 1.03 | 0.807
3.333 µM | 0.483 | 0.898 | 1.01 | 1.053 | 0.735
10 µM | 0.365 | 0.934 | 1 | 1.03 | 0.651
